Measured values: ChEMBL document CHEMBL1201862, “PubChem BioAssay data set” (2004)
Active and inactive are the calls of the source.

What was measured:
[1] = NIH-3T3 fibroblast cytotoxicity, dose response, cytotoxicity control, cell-based, fluorescence, Alamar Blue, secondary assay (AID 2327); type: functional;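 also: NIH-3T3 mouse fibroblasts cultured with fluconazole at 8 µg/mL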
[2] = microbe, parasite or virus in culture; type: functional; settings: Mycobacterium tuberculosis
[3] = C. albicans growth with fluconazole, confirmation, fluorescence, retest (AID 2467); type: functional, cell-based
[4] = target: T1, Heat shock factor protein 1 (Mus musculus, UniProt P38532); assay: inhibition of MG132-induced HSE-luciferase signal, confirmation, cell-based, NIH3T3, luminescence, dose retest (AID 2382); type: functional;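 also: NIH3T3 fibroblasts with HSF1-driven luciferase reporter stressed by proteasome inhibitor MG132; luminescence from HSF1-driven luciferase expression after 8 hours of MG132 stress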
T1 sequence (P38532 whole entry): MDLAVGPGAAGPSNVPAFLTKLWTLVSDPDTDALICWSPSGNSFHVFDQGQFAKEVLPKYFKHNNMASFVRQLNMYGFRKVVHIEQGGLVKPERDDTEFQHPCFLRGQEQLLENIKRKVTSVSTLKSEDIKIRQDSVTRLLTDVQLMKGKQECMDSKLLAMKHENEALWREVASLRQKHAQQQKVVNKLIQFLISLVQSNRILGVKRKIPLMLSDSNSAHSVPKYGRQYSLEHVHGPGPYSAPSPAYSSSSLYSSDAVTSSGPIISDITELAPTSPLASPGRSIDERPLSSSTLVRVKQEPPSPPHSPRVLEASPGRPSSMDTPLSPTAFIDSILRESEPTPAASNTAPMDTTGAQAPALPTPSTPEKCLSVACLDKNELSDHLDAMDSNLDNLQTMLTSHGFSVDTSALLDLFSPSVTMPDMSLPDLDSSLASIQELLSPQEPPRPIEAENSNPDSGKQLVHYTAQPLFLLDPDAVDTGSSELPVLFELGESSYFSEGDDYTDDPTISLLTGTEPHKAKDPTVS

Leucine aminopeptidase = target: T2, Leucine aminopeptidase (Plasmodium falciparum 3D7, UniProt Q8IL11); assay: P. falciparum M17LAP inhibitors, primary screen, biochemical, fluorogenic H-Leu-NHMec substrate, 1536-well (AID 1619); type: functional
T2 sequence (Q8IL11 whole entry): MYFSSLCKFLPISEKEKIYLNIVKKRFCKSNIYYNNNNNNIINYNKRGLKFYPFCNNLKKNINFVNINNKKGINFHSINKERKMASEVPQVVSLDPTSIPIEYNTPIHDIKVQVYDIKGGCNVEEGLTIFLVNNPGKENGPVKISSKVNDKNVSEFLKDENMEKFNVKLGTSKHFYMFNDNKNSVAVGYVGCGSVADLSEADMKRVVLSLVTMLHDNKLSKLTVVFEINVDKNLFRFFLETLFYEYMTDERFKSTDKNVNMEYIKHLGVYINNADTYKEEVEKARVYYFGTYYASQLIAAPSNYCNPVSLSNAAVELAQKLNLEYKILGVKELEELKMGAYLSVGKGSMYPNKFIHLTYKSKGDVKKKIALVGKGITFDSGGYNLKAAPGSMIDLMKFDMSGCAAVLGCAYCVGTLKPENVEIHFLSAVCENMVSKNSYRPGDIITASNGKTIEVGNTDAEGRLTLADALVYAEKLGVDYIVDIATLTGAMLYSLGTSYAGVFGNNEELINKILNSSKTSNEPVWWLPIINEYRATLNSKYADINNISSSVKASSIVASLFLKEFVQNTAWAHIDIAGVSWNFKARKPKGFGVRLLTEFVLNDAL

HEK293 = assay: inhibitors of LMP1-driven NF-kB reporter, dose response, cell-based, HEK293, luciferase, cherry-pick (AID 588343); type: functional; settings: Homo sapiens
Fatty acid synthase [5] = target: T3, Fatty acid synthase (Homo sapiens, UniProt P49327); assay: FAS thioesterase domain inhibitors, dose response, biochemical, endpoint fluorescence intensity, uHTS hits (AID 624327); type: functional;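 also: fluorescence from hydrolysis of an O-methyl fluorescein acyl ester substrate by the enzyme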
T3 sequence (P49327 whole entry, the tested form may be a part): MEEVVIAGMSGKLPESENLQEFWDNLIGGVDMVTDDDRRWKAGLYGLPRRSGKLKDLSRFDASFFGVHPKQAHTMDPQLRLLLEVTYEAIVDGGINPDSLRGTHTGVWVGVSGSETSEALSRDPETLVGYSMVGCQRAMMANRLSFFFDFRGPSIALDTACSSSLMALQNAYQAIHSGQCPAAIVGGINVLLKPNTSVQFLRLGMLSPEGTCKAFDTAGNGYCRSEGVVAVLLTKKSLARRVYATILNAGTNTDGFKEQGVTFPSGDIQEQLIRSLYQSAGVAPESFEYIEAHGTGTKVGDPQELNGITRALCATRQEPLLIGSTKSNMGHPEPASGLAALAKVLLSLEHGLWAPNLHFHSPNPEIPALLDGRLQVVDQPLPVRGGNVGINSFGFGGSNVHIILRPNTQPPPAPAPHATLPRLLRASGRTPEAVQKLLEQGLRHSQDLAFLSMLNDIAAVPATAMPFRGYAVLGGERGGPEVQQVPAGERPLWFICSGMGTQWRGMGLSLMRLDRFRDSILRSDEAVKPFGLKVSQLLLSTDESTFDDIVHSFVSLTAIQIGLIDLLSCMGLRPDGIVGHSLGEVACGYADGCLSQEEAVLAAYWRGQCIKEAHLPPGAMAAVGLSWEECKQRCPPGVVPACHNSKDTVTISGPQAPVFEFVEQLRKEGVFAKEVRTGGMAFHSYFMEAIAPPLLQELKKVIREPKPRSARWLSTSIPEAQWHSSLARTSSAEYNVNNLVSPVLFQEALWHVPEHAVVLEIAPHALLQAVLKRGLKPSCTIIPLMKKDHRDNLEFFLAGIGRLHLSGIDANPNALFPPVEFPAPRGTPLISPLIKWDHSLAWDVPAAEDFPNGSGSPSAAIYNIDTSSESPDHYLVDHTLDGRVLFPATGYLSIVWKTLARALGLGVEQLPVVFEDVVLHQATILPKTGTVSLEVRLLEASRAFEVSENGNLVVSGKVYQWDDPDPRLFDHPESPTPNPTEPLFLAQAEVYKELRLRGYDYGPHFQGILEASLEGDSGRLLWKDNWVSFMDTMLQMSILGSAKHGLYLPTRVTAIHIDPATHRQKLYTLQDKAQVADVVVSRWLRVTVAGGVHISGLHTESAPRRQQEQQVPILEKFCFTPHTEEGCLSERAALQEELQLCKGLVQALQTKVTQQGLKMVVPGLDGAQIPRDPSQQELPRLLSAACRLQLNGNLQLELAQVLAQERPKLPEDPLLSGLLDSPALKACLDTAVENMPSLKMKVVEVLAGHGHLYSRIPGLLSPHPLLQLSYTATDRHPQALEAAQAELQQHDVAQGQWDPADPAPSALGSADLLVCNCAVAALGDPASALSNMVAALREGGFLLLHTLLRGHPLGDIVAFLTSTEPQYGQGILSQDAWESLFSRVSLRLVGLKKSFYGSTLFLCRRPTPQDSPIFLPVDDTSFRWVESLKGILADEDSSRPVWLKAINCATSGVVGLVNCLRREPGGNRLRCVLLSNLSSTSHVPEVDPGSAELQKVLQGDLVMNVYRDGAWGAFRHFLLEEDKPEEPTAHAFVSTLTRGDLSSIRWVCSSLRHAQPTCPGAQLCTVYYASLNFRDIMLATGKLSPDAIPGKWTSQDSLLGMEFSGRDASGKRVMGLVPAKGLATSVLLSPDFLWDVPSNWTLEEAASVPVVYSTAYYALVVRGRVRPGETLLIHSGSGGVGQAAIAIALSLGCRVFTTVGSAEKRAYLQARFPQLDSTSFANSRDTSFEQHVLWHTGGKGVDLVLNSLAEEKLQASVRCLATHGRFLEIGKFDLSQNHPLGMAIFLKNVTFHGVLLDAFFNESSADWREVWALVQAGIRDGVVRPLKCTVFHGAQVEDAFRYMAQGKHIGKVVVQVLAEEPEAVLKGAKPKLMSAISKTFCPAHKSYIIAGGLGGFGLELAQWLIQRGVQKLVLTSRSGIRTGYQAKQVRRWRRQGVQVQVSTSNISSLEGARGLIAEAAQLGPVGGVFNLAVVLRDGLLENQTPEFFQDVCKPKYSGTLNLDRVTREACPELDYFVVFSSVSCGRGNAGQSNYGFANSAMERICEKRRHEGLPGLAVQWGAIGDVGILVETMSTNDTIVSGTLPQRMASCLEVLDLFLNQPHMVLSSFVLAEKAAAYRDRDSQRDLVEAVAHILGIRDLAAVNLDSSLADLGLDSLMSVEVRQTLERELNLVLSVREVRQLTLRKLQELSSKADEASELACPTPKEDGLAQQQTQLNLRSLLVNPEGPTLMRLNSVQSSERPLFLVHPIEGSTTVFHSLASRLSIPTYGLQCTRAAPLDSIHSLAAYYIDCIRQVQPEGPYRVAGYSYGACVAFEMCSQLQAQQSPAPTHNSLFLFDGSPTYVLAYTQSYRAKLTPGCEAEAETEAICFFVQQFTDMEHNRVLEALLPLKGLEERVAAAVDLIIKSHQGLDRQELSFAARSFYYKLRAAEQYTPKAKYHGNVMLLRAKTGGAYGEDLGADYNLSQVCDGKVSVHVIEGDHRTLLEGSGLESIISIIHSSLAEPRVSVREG

Fatty acid synthase [6] = target: T3, Fatty acid synthase; assay: FAS thioesterase domain inhibitors, dose response, biochemical, kinetic fluorescence intensity (AID 624326); type: functional;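 also: rate of fluorescence rise from hydrolysis of a fluorogenic O-methyl fluorescein ester substrate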
cells [7] = type: functional
[8] = Shn3 3'UTR reporter inhibitors, dose response, cell-based, Clone20 osteoblasts, firefly luciferase, cherry-picked (AID 624132); type: functional;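 also: firefly luciferase luminescence from reporter carrying the Shn3 3'UTR in osteoblasts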
[9] = HepG2 cell cytotoxicity, dose response, cytotoxicity control for Shn3 inhibitor project, CellTiter-Glo, cherry-picked (AID 624134); type: functional, cell-based
[10] = test system: Streptococcus sp. 'group A'; assay: growth inhibition of control SK(-) GAS strain, dose response, counter-screen for streptokinase expression inhibitor project, luminescence, kanamycin, BacTiterGlo, confirmation (AID 1900); type: functional, organism-based
[11] = control 3'UTR Renilla luciferase suppression, dose response, counter-screen for Shn3 inhibitor project, cell-based, Clone20-Shn3RL, cherry-picked (AID 624133); type: functional
Streptokinase A = target: T4, Streptokinase A (Streptococcus pyogenes serotype M1, UniProt P10520); assay: S. pyogenes streptokinase expression inhibitors, potency, dose response, plasminogen activation absorbance, OD405 (AID 1914); type: functional, Streptococcus pyogenes M1 GAS;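 also: secreted streptokinase activity via plasminogen activation per viability signal from cell pellet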
T4 sequence (P10520 whole entry): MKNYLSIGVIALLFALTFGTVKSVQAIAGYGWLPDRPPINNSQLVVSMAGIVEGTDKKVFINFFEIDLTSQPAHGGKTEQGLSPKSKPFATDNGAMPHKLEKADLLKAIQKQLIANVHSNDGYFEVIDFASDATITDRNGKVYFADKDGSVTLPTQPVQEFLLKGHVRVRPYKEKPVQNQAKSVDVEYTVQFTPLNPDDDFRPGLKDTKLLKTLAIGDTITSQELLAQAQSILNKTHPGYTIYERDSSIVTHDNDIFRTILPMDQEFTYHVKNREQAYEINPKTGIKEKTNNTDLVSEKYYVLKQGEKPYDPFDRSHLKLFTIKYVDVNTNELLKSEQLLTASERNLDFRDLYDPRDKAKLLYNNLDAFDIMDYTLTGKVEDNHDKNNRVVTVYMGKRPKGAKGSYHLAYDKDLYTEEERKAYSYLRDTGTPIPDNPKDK

Streptococcus = assay: Group A Streptococcus viability loss, dose response, counter-screen for streptokinase expression inhibitor project, luminescence, BacTiterGlo (AID 1915); type: functional, organism-based;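 also: potency for reduction of bacterial viability or growth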
[12] = target: Heat shock protein HSP 90-alpha (Homo sapiens, UniProt P07900); type: functional, organism-based
[13] = Vero E6 cell cytotoxicity, dose response, cytotoxicity control for non-replicating M. tuberculosis project, secondary assay (AID 492998); type: functional, VeroE6; settings: Vero C1008
[14] = THP-1 cell cytotoxicity, dose response, cytotoxicity control for non-replicating M. tuberculosis project (AID 489025); type: functional
cells [15] = type: functional, cell-based
cells [16] = type: functional, cell-based; remark: listed apart in the source
[17] = cytotoxicity toward NIH3T3 fibroblasts, dose response, counter-screen, cell-based, ATP luminescence, mouse fibroblasts (AID 2010); type: functional;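 also: cells exposed to compound for about 90 hours before reading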
[18] = inhibitors of intracellular T. cruzi replication, confirmation, NIH3T3 host cells, beta-gal luminescence (AID 2044); type: functional, cell-based;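 also: intracellular parasites grown in NIH/3T3 mouse fibroblasts as host cells; luminescent beta-galactosidase reporter signal from transgenic T. cruzi replicating inside host cells; inhibitors lower the luminescence signal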
[19] = target: T1, Heat shock factor protein 1; assay: HSF1 potentiators in luciferase reporter cells, confirmation, cell-based, NIH3T3, luminescence, dose retest (AID 435004); type: functional;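 also: stress induced by proteasome inhibitor MG132 added 30 min after compound; luciferase reporter driven by HSF1 response element in NIH3T3 cells; actives raise luminescence as potentiators of the MG132 stress response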
[20] = inhibitors of SNCA 5'UTR-driven reporter translation, confirmation, H4 neuroglioma cells, luminescence (AID 1988); type: functional, cell-based
[21] = Luminescence Cell-Based Dose Response HTS to Identify Inhibitors of 5'UTR Stem-Loop Driven Prion Protein mRNA Translation in H4 Neuroglioblastoma Cells. [Related pubchem assays: 1827 (Project Summary), 1813 (Primary HTS)]; type: functional
Cytochrome P450 3A4 = Cytochrome P450 3A4 (Homo sapiens, UniProt P08684);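 also: CYP3A4 tested as one member of a cytochrome P450 panel screen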
Cytochrome P450 3A4, sequence (P08684 whole entry): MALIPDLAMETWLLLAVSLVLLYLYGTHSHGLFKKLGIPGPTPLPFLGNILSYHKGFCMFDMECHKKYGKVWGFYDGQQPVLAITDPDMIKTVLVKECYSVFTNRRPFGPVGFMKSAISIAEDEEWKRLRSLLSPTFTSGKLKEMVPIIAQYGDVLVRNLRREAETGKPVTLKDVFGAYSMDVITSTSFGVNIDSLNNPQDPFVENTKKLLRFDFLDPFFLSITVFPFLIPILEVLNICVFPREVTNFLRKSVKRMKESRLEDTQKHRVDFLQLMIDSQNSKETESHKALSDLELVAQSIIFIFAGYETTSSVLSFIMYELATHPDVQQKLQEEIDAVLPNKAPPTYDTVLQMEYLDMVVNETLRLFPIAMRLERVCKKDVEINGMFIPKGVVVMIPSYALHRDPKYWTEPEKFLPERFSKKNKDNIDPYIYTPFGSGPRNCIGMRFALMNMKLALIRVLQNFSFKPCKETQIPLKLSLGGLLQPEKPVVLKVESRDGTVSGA

[22] = inhibitors of firefly luciferase expression or activity, dose response, H4 neuroglioma cells, luminescence (AID 1990); type: functional, cell-based
INS1 = assay: beta cell apoptosis inhibitors, cytokine rescue, dose response, luminescence, retest (AID 449756); type: functional, cell-based; settings: Rattus norvegicus;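 also: cell death triggered by IL-1 beta plus TNF-alpha plus IFN-gamma mixture; protective hits raise ATP signal compared with cytokine alone wells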
[23] = intracellular Trypanosoma cruzi inhibitors in host cells – cell-based, plate reader, cherry-pick samples, set 3, dose response (AID 651818); type: functional;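 also: compounds incubated with infected cells for about four days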
[24] = P. falciparum Dd2 growth inhibitors, dose response, SYBR Green, cherry-picked samples (AID 1159567); type: functional, cell-based
[25] = HepG2 cell cytotoxicity, dose response, cytotoxicity control, cherry-picked samples (AID 1159577); type: functional, cell-based

Cc1ccc(C2C3=C(CC(C)(C)CC3=O)N=C3c4ccccc4C(=O)C32)cc1 (stereo unspecified)
EC50 [1]: 24 µM (active) | CC50 [2]: > 40 µM (active) | EC50 [3]: 1.01 µM (active)

CCCn1c(C)cc(C(=O)COC(=O)c2cccnc2O)c1C
EC50 [4]: 0.289 µM (active) | IC50 (Leucine aminopeptidase): 15.3 µM (active) | AC50 (HEK293): 5.4 µM (active)

COc1cc2c(cc1OC)C(c1ccc(-c3ccccc3Cl)o1)=NCC2
AC50 (HEK293): 15.2 µM (active)

Cc1ccc(C(=O)CN(CCCC(N)=O)S(=O)(=O)c2ccc([N+](=O)[O-])cc2)cc1
IC50 (Fatty acid synthase [5]): 3.83 µM (active) | IC50 (Fatty acid synthase [6]): 2.83 µM (active)

Cc1nn(-c2ccccc2)nc1C(=O)c1c(C)nn(-c2ccccc2)c1O
IC50 (cells [7]): 12.8 µM (active) | CC50 [2]: 35.8 µM (active)

CC(C)=CCc1cc([C@@H]2COc3c(ccc4c3C=CC(C)(C)O4)C2)c(O)cc1O
AC50 [8]: 7.54 µM (active) | AC50 [9]: 58.3 µM (active) | EC50 [10]: 1.8 µM (active) | AC50 [11]: 4.11 µM (active) | EC50 (Streptokinase A): > 150 µM (not active) | EC50 (Streptococcus): 5.23 µM (active) | AC50 [12]: 3.57 µM (active)

COc1ccc(NC(=O)CN(c2ccc([N+](=O)[O-])cc2)S(=O)(=O)c2ccccc2)cc1
IC50 (Fatty acid synthase [5]): 7.77 µM (active) | IC50 (Fatty acid synthase [6]): 3.48 µM (active)

CN1C(=O)C(=C(Nc2ccccc2)SCc2ccccc2Cl)C(=O)N(C)C1=O
IC50 (cells [7]): 3.96 µM (active) | CC50 [13]: > 20 µM (active) | CC50 [14]: > 40 µM (active)

CC(C)(C)SCCNC(=O)c1ccc(Cl)c([N+](=O)[O-])c1
IC50 (Fatty acid synthase [5]): 6.39 µM (active) | AC50 [12]: 2.84 µM (active) | IC50 (Fatty acid synthase [6]): 5.65 µM (active)

CCC(c1nnnn1Cc1ccco1)N(CCc1ccccc1)Cc1cc2cc(C)ccc2nc1O (stereo unspecified)
EC50 (cells [15]): > 29.9 µM (inactive) | IC50 (cells [16]): > 29.9 µM (inactive)

Cc1ccc(-c2nnc(NC(=O)c3ccco3)o2)c(C)c1
IC50 (cells [7]): 0.81 µM (active) | CC50 [13]: 17.5 µM (active) | CC50 [14]: > 40 µM (active)

CCc1nc(SCC(=O)c2ccc3c(c2)OCCO3)c2ccccc2n1
AC50 (HEK293): 32.8 µM (active)

O=C(Nc1cccc(Cl)c1N1CCCC1)c1ccc([N+](=O)[O-])o1
IC50 (cells [7]): 18.4 µM (active) | CC50 [13]: 12.4 µM (active) | CC50 [14]: 24 µM (active)

CCn1c(CNc2ccc(Cl)cc2)nnc1SCc1ccc(C)cc1
AC50 [12]: 8.07 µM (active)

Cc1ccc(N2C(=O)C3CC(c4ccccc4)=C4C5C=CC(C6C(=O)N(c7ccc(C)cc7C)C(=O)C56)C4C3C2=O)c(C)c1 (stereo unspecified)
IC50 (Fatty acid synthase [5]): 17.4 µM (active) | EC50 [17]: > 60 µM (not active) | EC50 [18]: 2.49 µM (active) | EC50 [19]: > 260 µM (inactive) | IC50 (Fatty acid synthase [6]): 10.3 µM (active)

Cc1cc(-c2cc(-c3ccc(Cl)cc3)nc(N)c2C#N)co1
EC50 [20]: > 120 µM (not active) | EC50 [21]: > 120 µM (not active) | AC50 (Cytochrome P450 3A4): 17.8 µM (inconclusive) | AC50 [12]: 6.87 µM (active) | EC50 [22]: 20.9 µM (active)

Cc1ccc(Cn2c(C(CO)Nc3nc(-c4ccc(F)cc4)cs3)nc3ccccc32)cc1 (stereo unspecified)
EC50 [10]: 5.27 µM (active) | CC50 [2]: 28.5 µM (active) | EC50 (Streptokinase A): > 150 µM (not active) | EC50 (Streptococcus): 5.23 µM (active)

O=C(NNc1c(Cl)cc(Cl)cc1Cl)c1cccc([N+](=O)[O-])c1
IC50 (Fatty acid synthase [5]): 10.7 µM (active) | AC50 (INS1): 3.93 µM (active) | IC50 (Fatty acid synthase [6]): 6.77 µM (active)

C[C@H](CO)N1C[C@H](C)[C@@H](CN(C)S(=O)(=O)c2ccc(F)cc2)Oc2c(NC(=O)NC3CCCCC3)cccc2C1=O
AC50 [23]: 7.84 µM (active)

Cc1ccc(S(=O)(=O)Nc2ccc3c(c2)C(=O)N([C@@H](C)CO)C[C@H](C)[C@H](CN(C)Cc2ccc(-c4ccccc4)cc2)O3)cc1
AC50 [23]: 5.6 µM (active)

C[C@@H]1CCCCO[C@@H](CN(C)Cc2ccc(C(=O)Nc3ccccc3N)cc2)[C@@H](C)CN([C@H](C)CO)C(=O)c2cc(NS(=O)(=O)c3cccs3)ccc2O1
AC50 [23]: 2.39 µM (active)

C[C@H]1CN([C@@H](C)CO)C(=O)Cc2cc(NS(=O)(=O)c3ccc(Cl)cc3)ccc2O[C@@H]1CN(C)Cc1ccc(Oc2ccccc2)cc1
AC50 [23]: 3.33 µM (active)

C[C@@H]1CN([C@H](C)CO)C(=O)Cc2cc(NS(=O)(=O)c3ccc(Cl)cc3)ccc2O[C@H]1CN(C)Cc1ccccc1
AC50 [23]: 3.09 µM (active)

O=C(CC(=O)N/N=C\c1ccc([N+](=O)[O-])cc1)NCCc1ccccc1
IC50 (Fatty acid synthase [5]): 23.6 µM (inactive) | IC50 (Fatty acid synthase [6]): 20.3 µM (inactive)

Cc1ccccc1-c1ccc2c(c1)O[C@@H](CN(C)Cc1ccncc1)[C@H](C)CN([C@H](C)CO)S2(=O)=O
AC50 [24]: 3.9 µM (active) | AC50 [25]: > 39 µM (inactive)

COc1ccc2c3c(n(C)c2c1)[C@@H](CO)N(C(=O)Nc1ccc(F)cc1)CC31CN(Cc2ccccc2F)C1
AC50 [24]: 5.53 µM (active) | AC50 [25]: 24.2 µM (active)

CCCc1cn(CC[C@H]2CC[C@H](NS(=O)(=O)c3ccc(-c4ccccc4)cc3)[C@@H](CO)O2)nn1
AC50 [24]: 4.48 µM (active) | AC50 [25]: > 39 µM (inactive)
